Source: patent US9340572B2, “Taccalonolide microtubule stabilizers” (THE BOARD OF REGENTS OF THE UNIVERSITY OF TEXAS SYSTEM, priority 2011, dated 2016)
Like-named read-outs stand apart in the source and are kept apart here.

What was measured:
HeLa cells [1] = experiment: Inhibition of cellular proliferation, SRB assay in HeLa cells; format: cell-based; settings: for IC50: HeLa cells, SRB assay; for fold increase in potency on epoxidation at C22-C23: epoxide compared with parent taccalonolide
Description: The determination of IC50 values was performed on taccalonolide material after NMR analysis and subsequent lyophilization. Ethanol or DMSO was used as the vehicle for all cellular studies.
The antiproliferative potencies of the taccalonolides were evaluated in HeLa cells using the SRB assay. Several new taccalonolides with low nanomoloar potency were identified, Table 1.

[2] = test system: cell lines that overexpress MRP7; settings: MRP7 overexpressing cell lines; cited from earlier work
[3] = test system: cell lines that overexpress Pgp; settings: Pgp overexpressing cell lines; cited from earlier work
[4] = test system: purified porcine brain tubulin; experiment: Tubulin polymerization followed turbidimetrically; format: biochemical; settings: 10 μM; 2 mg/ml tubulin, 10% glycerol, 1 mM GTP, 37° C., OD340
Description: FIG. 5—Effect of the taccalonolides on purified porcine brain tubulin. […] Tubulin polymerization was monitored by turbidity measurement at OD340.
The ability of these new potent taccalonolides to interact directly with tubulin was assessed by incubating purified porcine brain tubulin at a concentration of 2 mg/ml in the presence of 10% glycerol and 1 mM GTP, which allows for a baseline level of tubulin polymerization that can be followed turbidimetrically (FIG. 5).

WTβIII versus HeLa cells = experiment: Relative resistance, βIII-tubulin expressing cell line pair; format: cell-based
Description: (§1) FIG. 7—Effect of the taccalonolides in drug resistant and sensitive cells. IC50 values for inhibition of cellular proliferation for taccalonolides AF and AJ were determined in drug sensitive and drug resistant cell lines. The HeLa cell pair evaluated the effect of βIII tubulin expression on cell sensitivity and the ability of compounds to overcome drug resistance mediated by βIII tubulin expression. The SK-OV-3 cell line pair was used to evaluate the effects of the expression of P-glycoprotein (Pgp) on cell sensitivity and the ability of compounds to overcome Pgp-mediated drug resistence. The effects of the taccalonolides on the drug senstive prostate cancer cell line PC-3 are also presented. IC50 values were calculated from an average of 3-4 independent experiments, each performed in triplicate.
(§2) The HeLa cervical cancer cell line, the SK-OV-3 ovarian cancer cell line and the PC-3 prostate cancer cell line were obtained from American Type Tissue Culture Collection (Manassas, Va.) and grown in Basal Media Eagle (BME) or RPMI 1640 medium (Invitrogen; Carlsbad, Calif.) supplemented with 10% fetal bovine serum (Hyclone; Logan, Utah) and 50 μg/ml gentamicin sulfate (Invitrogen). […]
(§3) The antiproliferative and cytotoxic effects of the taccalonolides were evaluated using the SRB assay (Skehan et al., 1990, Boyd and Paull, 1995) as previously described (Tinley et al., 2003). […]

[5] = test system: human mammary epithelial cells; experiment: Cytotoxicity to normal cells; format: cell-based; settings: concentrations 5 to 100-fold their IC50 values in HeLa
HeLa cells [6] = experiment: Interphase microtubule bundling by indirect immunofluorescence; format: cell-based; settings: 18 h; 200 nM AF, 200 nM AI, 70 nM AJ
Description: FIGS. 2A-D—Effect of the taccalonolides on interphase cells. HeLa cells were treated for 18 h with vehicle (FIG. 2A), 200 nM taccalonolide AF (FIG. 2B), 200 nM taccalonolide AI (FIG. 2C), or 70 nM taccalonolide AJ (FIG. 2D). Interphase microtubule structures were visualized by indirect immunofluorescence using a β-tubulin antibody.
(§4) Cellular microtubules in interphase and mitotic HeLa cells were visualized using indirect immunofluorescence techniques as previously described (Tinley et al., 2003). […] Representative images of interphase and mitotic cells were acquired using a Nikon Eclipse 80i fluorescence microscope and compiled using NIS Elements AR 3.0 software.

HeLa cells [7] = experiment: Mitotic spindle structures by indirect immunofluorescence; format: cell-based; settings: 18 h; 125 nM AF, 200 nM AI, 35 nM AJ
Description: FIGS. 4A-D—Effect of the taccalonolides on mitotic spindles. […] The microtubule structures in mitotic cells were visualized by indirect immunofluorescence using a β-tubulin antibody.
as §4
The effects of the taccalonolides on mitotic spindle structures were evaluated to test whether they caused mitotic spindle defects leading to cell cycle arrest. β-tubulin and DNA were visualized in HeLa cells by indirect immunofluorescence and DAPI staining, respectively. […] These mitotic cells contained multiple abnormal mitotic spindles, which is another common effect of microtubule stabilizing agents (FIGS. 4A-D).

[8] = test system: SK-OV-3/MDR-1-6/6 versus SK-OV-3 cells; experiment: Relative resistance, P-glycoprotein expressing cell line pair; format: cell-based; settings: P-glycoprotein expressing SK-OV-3 pair
Description: as §1, §2, §3

[9] = test system: isogenic HeLa-derived cell line that expresses the βIII isotype of tubulin; settings: cited from earlier work
[10] = cited from earlier work
[11] = test system: doxorubicin- and paclitaxel-resistant Pgp-expressing tumor, Mam17/ADR; settings: cited from earlier work
[12] = test system: MDA-MB-231 human breast tumors; experiment: Antitumor activity against MDA-MB-231 tumors in nude mice; format: in vivo
Description: FIG. 6—Antitumor activity of taccalonolide AF. […] Tumor size was measured using calipers and volume calculated with the formula: Tumor volume (mm^3)=width (mm)×length (mm)×height (mm) and graphed as median tumor size for days 0-8.
The ability of taccalonolide AF to inhibit the growth of the aggressive human breast tumor MDA-MB-231 in a murine host was determined Taccalonolide AF was administered at a dose of 2.5 mg/kg on days 1 and 3.

[13] = parent taccalonolide, read-out: IC50 (nM), Taccalonolide

Work on `CC(=O)O[C@@H]1[C@H](O)[C@@H]2C([C@H](OC(C)=O)[C@H](OC(C)=O)[C@]3(C)[C@@H]4[C@@H]([C@H](O)[C@@H]23)[C@]2(C)C(=C[C@H]4C)OC(=O)[C@@]2(C)O)[C@]2(C)[C@@H]1C[C@@H]1O[C@@H]1[C@@H]2OC(C)=O` (some centres unmarked) [TA-NaBH4-12] yielded an IC50 (HeLa cells [1]; [13]) of 7500 nM.
Molecule `CC(=O)O[C@H]1C(=O)[C@H]2C[C@@H]3O[C@@H]3[C@H](OC(C)=O)[C@]2(C)C2[C@@H]1[C@@H]1[C@@H](O)[C@@H]3[C@H]([C@H](C)C=C4OC(=O)[C@@](C)(O)[C@@]43C)[C@@]1(C)[C@@H](OC(C)=O)[C@H]2OC(C)=O` (some centres unmarked) [TB-AC-16] has an IC50 (HeLa cells [1]; [13]) of 40000 nM.
For `CC(=O)O[C@H]1[C@H]2[C@H]([C@@H]3[C@@H](O)[C@@H]4[C@H]([C@H](C)C=C5OC(=O)[C@@](C)(O)[C@@]54C)[C@@]3(C)[C@H]1OC(C)=O)[C@@H](O)C(=O)[C@H]1C[C@@H]3O[C@@H]3[C@H](OC(C)=O)[C@]21C` [Taccalonolide B], the efficacy in vitro [2] is listed as “effective” and the efficacy in vitro [3] is listed as “effective”.
For `CC(=O)O[C@H]1[C@H]2[C@H]([C@@H]3[C@@H](O)[C@@H]4[C@H]([C@H](C)[C@@H]5O[C@@]56OC(=O)[C@@](C)(O)[C@]46C)[C@@]3(C)[C@H]1OC(C)=O)[C@@H](O)C(=O)[C@H]1C[C@@H]3O[C@@H]3[C@H](OC(C)=O)[C@]21C` [Taccalonolide AJ], the “rate and extent of tubulin polymerization” value [4] was “dramatically increased”, the “relative resistance (IC50 resistant line / IC50 parental line)” value (WTβIII versus HeLa cells) was “much lower than paclitaxel” and the “cytotoxicity of normal cells” value [5] was “No cytotoxicity”. The “bundling of interphase microtubules” value (HeLa cells [6]) was “formation of thick bundled microtubule tufts”, the “effect on mitotic spindles” value (HeLa cells [7]) was “mitotic arrest of cells with multiple abnormal mitotic spindles” and the “relative resistance (IC50 resistant line / IC50 parental line)” value [8] was “much lower than paclitaxel”. The “fold increase in potency on epoxidation at C22-C23” value (HeLa cells [1]; HeLa IC50) was 743 fold.
In the case of `CC(=O)O[C@@]12CO[C@@H]1C[C@H](O)[C@@]1(C)C(=O)[C@H](O)C3=C(C)[C@@H](OC(=O)[C@H](O)[C@@H](NC(=O)OC(C)(C)C)c4ccccc4)C[C@@](O)([C@@H](OC(=O)c4ccccc4)[C@H]21)C3(C)C` [docetaxel], the “sensitivity of βIII-tubulin-overexpressing cell line compared with parental HeLa cells” value (shortened to “sensitivity … compared with parental HeLa cells”) [9] is given as “less sensitive”.
For `CC(=O)O[C@H]1C[C@H]2[C@H]([C@@H]3[C@@H](O)[C@@H]4[C@H]([C@H](C)C=C5OC(=O)[C@@](C)(O)[C@@]54C)[C@]31C)[C@@H](O)C(=O)[C@H]1C[C@@H]3O[C@@H]3[C@H](OC(C)=O)[C@@]12C` [Taccalonolide N], the efficacy in vitro [2] is given as “effective”, the efficacy in vitro [3] is given as “effective” and the “in vivo antitumor activity” value [10] is given as “have in vivo antitumor activity”.
In the case of `CC(=O)O[C@@H]1[C@H]2[C@H]3[C@H]([C@H](OC(C)=O)[C@H](OC(C)=O)[C@]2(C)[C@@H]2[C@@H]1[C@]1(C)C(=C[C@H]2C)OC(=O)[C@@]1(C)O)[C@]1(C)[C@H](C[C@@H]2O[C@@H]2[C@@H]1OC(C)=O)C(=O)[C@@H]3O` [Taccalonolide A], the efficacy in vitro [2] is listed as “effective”, the efficacy in vitro [3] is listed as “effective” and the activity in vivo [11] is listed as “highly active”. For the same molecule, the “in vivo antitumor activity” value [10] was “have in vivo antitumor activity”.
In the case of `CC(=O)O[C@@H]1[C@H]2[C@@H]3[C@@H](O)C(=O)[C@H]4C[C@@H]5O[C@@H]5[C@H](OC(C)=O)[C@]4(C)[C@H]3C[C@H](OC(C)=O)[C@]2(C)[C@@H]2[C@@H]1[C@]1(C)C(=C[C@H]2C)OC(=O)[C@@]1(C)O` [Taccalonolide E], the efficacy in vitro [2] is given as “effective”, the efficacy in vitro [3] is given as “effective” and the activity in vivo [11] is given as “highly active”. For the same molecule, the “in vivo antitumor activity” value [10] was “have in vivo antitumor activity”.
`CC(=O)O[C@H]1C2[C@@H]([C@@H](O)[C@@H](O)[C@H]3C[C@@H]4O[C@@H]4[C@H](OC(C)=O)[C@]23C)[C@@H]2[C@@H](O)[C@@H]3[C@H]([C@H](C)C=C4OC(=O)[C@@](C)(O)[C@@]43C)[C@@]2(C)[C@H]1OC(C)=O` (some centres unmarked) [TA-NaBH4-10] showed an IC50 (HeLa cells [1]; [13]) of 20000 nM.
With `CC(=O)O[C@H]1[C@@H]2[C@H]([C@H](C)C=C3OC(=O)[C@@](C)(O)[C@@]32C)[C@]2(C)[C@@H]1C1=C(O)C(=O)[C@H]3C[C@@H]4O[C@@H]4[C@H](OC(C)=O)[C@]3(C)[C@H]1[C@H](OC(C)=O)[C@@H]2OC(C)=O` [Taccalonolide H2, reference compound] the “fold more potent than taccalonolide A” value (HeLa cells [1]; HeLa IC50) was 7.4 fold.
In the case of `CC(=O)O[C@@H]1[C@H]2[C@H]3[C@H]([C@H](OC(C)=O)[C@H](OC(C)=O)[C@]2(C)[C@H]2[C@H](C)[C@H]4O[C@]45OC(=O)[C@@](C)(O)[C@]5(C)[C@@H]12)[C@]1(C)[C@H](C[C@@H]2O[C@@H]2[C@@H]1OC(C)=O)C(=O)[C@@H]3O` [Taccalonolide AF], the “rate and extent of tubulin polymerization” value [4] is reported as “dramatically increased”, the “relative resistance (IC50 resistant line / IC50 parental line)” value (WTβIII versus HeLa cells) is reported as “much lower than paclitaxel” and the “cytotoxicity of normal cells” value [5] is reported as “No cytotoxicity”. For the same molecule, the “bundling of interphase microtubules” value (HeLa cells [6]) was “formation of thick bundled microtubule tufts”, the “effect on mitotic spindles” value (HeLa cells [7]) was “mitotic arrest of cells with multiple abnormal mitotic spindles” and the “relative resistance (IC50 resistant line / IC50 parental line)” value [8] was “much lower than paclitaxel”. The “fold increase in potency on epoxidation at C22-C23” value (HeLa cells [1]; HeLa IC50) was 234 fold, the “antitumor activity compared to paclitaxel positive control” value ([12]; 2.5 mg/kg days 1 and 3 vs 10 mg/kg paclitaxel days 1, 3 and 5, first week of treatment) was “greater antitumor activity than the positive control” and the “antitumor activity compared to vehicle treated controls” value ([12]; 2.5 mg/kg on days 1 and 3, preliminary) was “sufficient to observe antitumor activity”.
In the case of `C/C(=C\c1csc(C)n1)[C@@H]1C[C@@H]2O[C@]2(C)CCC[C@H](C)[C@H](O)[C@@H](C)C(=O)C(C)(C)[C@@H](O)CC(=O)O1` [epothilone B], the “sensitivity … compared with parental HeLa cells” value [9] is listed as “less sensitive”.
For `CC[C@]1(O)C[C@@H]2CN(CCc3c([nH]c4ccccc34)[C@@](C(=O)OC)(c3cc4c(cc3OC)N(C)[C@H]3[C@@](O)(C(=O)OC)[C@H](OC(C)=O)[C@]5(CC)C=CCN6CC[C@]43[C@@H]65)C2)C1` [vinblastine], the “sensitivity … compared with parental HeLa cells” value [9] is given as “less sensitive”.
`CC(=O)O[C@@H]1[C@H]2[C@H]3C([C@H](OC(C)=O)[C@H](OC(C)=O)[C@]2(C)[C@@H]2[C@@H]1[C@]1(C)C(=C[C@@]2(C)OO)OC(=O)[C@@]1(C)O)[C@]1(C)[C@H](C[C@@H]2O[C@@H]2[C@@H]1OC(C)=O)C(=O)[C@@H]3O` (some centres unmarked) [Taccalonolide AC] showed an IC50 (HeLa cells [1]; Homo sapiens, parent taccalonolide, read-out: IC50 (nM), Taccalonolide) greater than 50000 nM and an IC50 (HeLa cells [1]; Homo sapiens, read-out: IC50 value) greater than 50000 nM.
